In brackets after ≈: the same amount, converted by molar mass.
What was measured:
[1] = not given; remark: listed apart in the source
[2] = octanol/water
[3] = target: T1, Carbonic anhydrase 4 (Bos taurus, UniProt Q95323)
T1 sequence (Q95323 whole entry): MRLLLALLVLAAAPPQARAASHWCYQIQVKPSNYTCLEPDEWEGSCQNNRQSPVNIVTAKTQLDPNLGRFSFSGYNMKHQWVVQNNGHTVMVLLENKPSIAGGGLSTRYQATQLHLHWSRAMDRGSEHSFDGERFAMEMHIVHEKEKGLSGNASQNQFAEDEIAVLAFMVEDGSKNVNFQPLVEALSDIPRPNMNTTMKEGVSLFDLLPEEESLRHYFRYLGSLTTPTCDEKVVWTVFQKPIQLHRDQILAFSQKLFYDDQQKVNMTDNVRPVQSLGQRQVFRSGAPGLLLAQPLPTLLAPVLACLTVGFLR
Description: Inhibitory activity against bovine carbonic anhydrase IV

[4] = Solubility in Chloroform buffer at pH 7.4; type: physicochemical
[5] = target: Carbonic anhydrase 1 (Homo sapiens, UniProt P00915)
Description: Inhibitory activity against Human carbonic anhydrase I

[6] = physchem; settings: buffer, pH 5.5
Description: Solubility in buffer at pH 5.5

[7] = not given; remark: listed apart in the source
[8] = not given; remark: listed apart in the source
[9] = species: Oryctolagus cuniculus
[10] = species: Oryctolagus cuniculus; remark: listed apart in the source
[11] = species: Oryctolagus cuniculus; remark: listed apart in the source
[12] = species: Oryctolagus cuniculus; remark: listed apart in the source
[13] = Solubility in chloroform buffer at pH 7.4; type: physicochemical
[14] = Partition coefficient in Chloroform-buffer at pH 7.4; type: physicochemical
[15] = Solubility in buffer at pH 7.4; type: physicochemical

Sequence of Carbonic anhydrase 1 (P00915 whole entry): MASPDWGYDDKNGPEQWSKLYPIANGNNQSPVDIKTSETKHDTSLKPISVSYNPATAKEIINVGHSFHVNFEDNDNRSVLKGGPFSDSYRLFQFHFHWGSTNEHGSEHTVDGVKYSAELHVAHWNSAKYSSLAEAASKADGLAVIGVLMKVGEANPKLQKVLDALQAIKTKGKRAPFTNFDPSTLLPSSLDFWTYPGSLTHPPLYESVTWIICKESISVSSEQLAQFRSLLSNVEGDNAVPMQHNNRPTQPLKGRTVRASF

Row | Molecule | Kin x10e3 [hr-1] | Kin x10e3 [1] [hr-1] | logD [2] | Ki [3] [nM] | Ki [5] [nM] | also measured
1 | Cn1nc(S(N)(=O)=O)s/c1=N/C(=O)CN(CCN(CC(=O)O)CC(=O)O)CC(=O)O | 4.8 | 9.5 | 1.75 | 26 | 215 | solubility [4]: 65 mM (≈ 30.5 mg/mL)
2 | NS(=O)(=O)C1N=NC(NC(=O)CN(CCN(CCN(CC(=O)O)CC(=O)NC2N=NC(S(N)(=O)=O)S2)CC(=O)O)CC(=O)O)S1 (centres undefined) |  |  | 1.961 | 7 |  | solubility [6]: 54 mM (≈ 39 mg/mL); Kin x10e3 [7]: 3.9 hr-1; Kin x10e3 [8]: 6.2 hr-1
3 | NS(=O)(=O)c1nc2ccc(OC(=O)CNCCNCC(=O)O)cc2s1 |  |  | 1.166 | 11 | 45 | solubility [6]: 44 mM (≈ 17.1 mg/mL); Kin x10e3 [7]: 4.7 hr-1; Kin x10e3 [8]: 8.4 hr-1
4 | NS(=O)(=O)c1ccc(NC(=O)CN(CCN(CCN(CC(=O)O)CC(=O)O)CC(=O)O)CC(=O)O)cc1 | 3.8 | 6.9 | 0.983 | 180 |  | solubility [4]: 48 mM (≈ 26.3 mg/mL)
5 | NS(=O)(=O)c1cc(S(N)(=O)=O)c(NC(=O)CN(CCN(CC(=O)O)CC(=O)Nc2c(S(N)(=O)=O)cc(S(N)(=O)=O)c(Cl)c2Cl)CC(=O)O)c(Cl)c1Cl | 3.6 | 7 | 1.764 | 51 | 65 | solubility [4]: 32 mM (≈ 28.7 mg/mL)
6 | NS(=O)(=O)c1nnc(NC(=O)CN(CCN(CCN(CC(=O)O)CC(=O)O)CC(=O)O)CC(=O)O)s1 | 4.3 | 8.1 | 1.375 | 28 |  | solubility [4]: 59 mM (≈ 32.8 mg/mL)
7 | Cn1nc(S(N)(=O)=O)s/c1=N/C(=O)CN(CCN(CC(=O)O)CC(=O)/N=c1/sc(S(N)(=O)=O)nn1C)CC(=O)O | 3.1 | 5.5 | 1.333 | 17 |  | solubility [4]: 41 mM (≈ 26.4 mg/mL)
8 | (Carboxymethyl-{2-[2-(2-{carboxymethyl-[(5-sulfamoyl-[1,3,4]thiadiazol-2-ylcarbamoyl)-methyl]-amino}-ethoxy)-ethoxy]-ethyl}-amino)-acetic acid; compound with Cu complex |  |  |  |  |  | Delta IOP [9]: 9.6 mmHg; Delta IOP [10]: 13.5 mmHg; Delta IOP [11]: 0 mmHg; Delta IOP [12]: 4.7 mmHg
9 | NS(=O)(=O)c1nnc(NC(=O)CN(CCOCCOCCN(CC(=O)O)CC(=O)O)CC(=O)O)s1 |  |  | 1.446 | 21 | 54 | solubility [6]: 52 mM (≈ 28.2 mg/mL); Kin x10e3 [7]: 4.6 hr-1; Kin x10e3 [8]: 8.4 hr-1
10 | NS(=O)(=O)c1ccc(NC(=O)CN(CCN(CCN(CC(=O)O)CC(=O)Nc2ccc(S(N)(=O)=O)cc2)CC(=O)O)CC(=O)O)cc1 | 3.6 | 4.5 | 1.456 | 156 |  | solubility [4]: 35 mM (≈ 24.6 mg/mL)
11 | NS(=O)(=O)c1ccc(NC(=O)CN(CCOCCOCCN(CC(=O)O)CC(=O)Nc2ccc(S(N)(=O)=O)cc2F)CC(=O)O)c(F)c1 |  |  | 1.534 | 16 | 155 | solubility [6]: 47 mM (≈ 34.1 mg/mL); Kin x10e3 [7]: 4.5 hr-1; Kin x10e3 [8]: 8.3 hr-1
12 | NS(=O)(=O)c1ccc(NC(=O)CN(CCOCCOCCN(CC(=O)O)CC(=O)O)CC(=O)O)c(Br)c1 |  |  | 1.747 | 32 | 78 | solubility [6]: 50 mM (≈ 30.7 mg/mL); Kin x10e3 [7]: 3.3 hr-1; Kin x10e3 [8]: 6.5 hr-1
13 | NS(=O)(=O)c1nnc(NC(=O)CCNC(=O)CNCC(=O)O)s1 | 2.5 | 4.6 |  | 48 | 280 | solubility [13]: 62 mM (≈ 22.7 mg/mL); logD [14]: 1.23
14 | NS(=O)(=O)c1nc2ccc(OCCOC(=O)CN(CC(=O)O)CC(=O)O)cc2s1 |  |  |  | 10 | 44 | solubility [15]: 37 mM (≈ 16.6 mg/mL); logD [14]: 1.925
15 | Cn1nc(S(N)(=O)=O)s/c1=N/C(=O)CNCCNCC(=O)O |  |  |  | 76 | 275 | 
16 | NS(=O)(=O)c1ccc(NC(=O)CN(CCOCCOCCN(CC(=O)O)CC(=O)O)CC(=O)O)cc1 |  |  |  | 170 | 4000 | 
17 | NS(=O)(=O)c1nnc(NC(=O)CCNC(=O)CN(CCN(CC(=O)O)CC(=O)NCCC(=O)Nc2nnc(S(N)(=O)=O)s2)CC(=O)O)s1 | 3 | 5.9 | 1.15 | 10 | 125 | solubility [15]: 46 mM (≈ 34.9 mg/mL)
18 | NS(=O)(=O)c1nnc(NC(=O)CCNC(=O)CN(CCN(CC(=O)O)c2ccccc2O)c2ccccc2O)s1 | 5.1 | 10.7 | 2.354 | 35 | 210 | solubility [4]: 44 mM (≈ 26.1 mg/mL)
19 | NS(=O)(=O)c1cc(S(N)(=O)=O)c(NC(=O)CN(CCN(CC(=O)O)CC(=O)O)CC(=O)O)c(Cl)c1Cl |  |  |  | 96 | 130 | 
20 | NS(=O)(=O)c1ccc(NNC(=O)CN(CC(=O)O)CC(=O)O)cc1 |  |  |  | 930 | 30500 | 
21 | NS(=O)(=O)c1nc2ccc(NC(=O)CN(CCOCCOCCN(CC(=O)O)CC(=O)O)CC(=O)O)cc2s1 |  |  |  | 7 | 39 | 
22 | NS(=O)(=O)c1cc(S(N)(=O)=O)c(NC(=O)CN(CCOCCOCCN(CC(=O)O)CC(=O)O)CC(=O)O)c(Cl)c1Cl |  |  |  | 35 | 50 | 
23 | NS(=O)(=O)c1nc2ccc(OCCOC(=O)CN(CCN(CC(=O)O)CC(=O)OCCOc3ccc4nc(S(N)(=O)=O)sc4c3)CC(=O)O)cc2s1 |  |  |  | 6 | 25 | 
24 | NS(=O)(=O)c1ccc(CCOC(=O)CNCC(=O)O)cc1 |  |  |  | 340 | 1200 | 
25 | NS(=O)(=O)c1ccc(NC(=O)CN(CCN(CC(=O)O)c2ccccc2O)c2ccccc2O)c(Br)c1 |  |  |  | 56 | 175 | 
26 | NS(=O)(=O)c1ccc(CCNC(=O)CN(CCOCCOCCN(CC(=O)O)CC(=O)NCCc2ccc(S(N)(=O)=O)cc2)CC(=O)O)cc1 |  |  |  | 20 | 160 | 
27 | NS(=O)(=O)c1nc2ccc(OCCOC(=O)CNCC(=O)O)cc2s1 |  |  |  | 12 | 46 | 
